Data on three compounds can be found in PMC13324472, “A family of ribosome hibernation factors widespread in Archaea” (Nature Communications, 2026).

The target in the assay is T1, HibA-CM (isolated HibA N-terminal domain, CBS module) (Pyrococcus abyssi, UniProt Q9UYR4).
T1 construct: gene PAB0961; N-terminal CBS module (residues 1-269 given as the module), made by stop codon at position 272; N-terminal His6 tag, expressed in E. coli Rosetta, Talon and Superdex 200
Description: isothermal titration calorimetry. It counts as binding. Background: ITC needs no label: the signal is the heat of the interaction.

The structures appear in SMILES notation.

T1 sequence (Q9UYR4 entry or part of it): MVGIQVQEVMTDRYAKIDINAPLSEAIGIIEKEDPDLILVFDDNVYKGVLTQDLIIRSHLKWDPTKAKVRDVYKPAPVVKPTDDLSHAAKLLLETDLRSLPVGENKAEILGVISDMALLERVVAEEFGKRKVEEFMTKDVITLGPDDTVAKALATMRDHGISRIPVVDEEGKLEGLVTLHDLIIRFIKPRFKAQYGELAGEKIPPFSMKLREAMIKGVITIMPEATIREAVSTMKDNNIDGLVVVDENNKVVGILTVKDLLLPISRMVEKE

Usually Kd stands for the free concentration of one partner at which half of the binding sites on the other are occupied at equilibrium, for simple one-to-one binding. A low value points to tighter binding. In the case of `Nc1ncnc2c1ncn2[C@@H]1O[C@H](COP(=O)(O)OP(=O)(O)O)[C@@H](O)[C@H]1O` [ADP], the Kd is 65 ± 1 µM.

As to `Nc1ncnc2c1ncn2[C@@H]1O[C@H](COP(=O)(O)O)[C@@H](O)[C@H]1O` [AMP], the Kd turned out to be 12 ± 2 µM. The same measure for `Nc1ncnc2c1ncn2[C@@H]1O[C@H](COP(=O)(O)OP(=O)(O)OP(=O)(O)O)[C@@H](O)[C@H]1O` [ATP]: 113 ± 21 µM.
